Calls of active or inactive are those of the source.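 The calls were made as follows: active = inhibition of at least 2%; inactive = inhibition below 2%.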
Biological target: Tyrosine-protein kinase ABL1 (Homo sapiens) (UniProt P00519)
Assay: reduction of ABL1-mediated CRK phosphorylation – biochemical, purified CRK substrate, chemiluminescent immunoblot, powders, round 1, RIN1-ABL interaction inhibitor project, late-stage follow-up (AID 624303)
Details: purified ABL1 phosphorylating CRK, anti-pTyr chemiluminescence blot; at 10 µM; active compounds read high

Chain of Tyrosine-protein kinase ABL1 (Homo sapiens) (P00519 whole entry, looked up): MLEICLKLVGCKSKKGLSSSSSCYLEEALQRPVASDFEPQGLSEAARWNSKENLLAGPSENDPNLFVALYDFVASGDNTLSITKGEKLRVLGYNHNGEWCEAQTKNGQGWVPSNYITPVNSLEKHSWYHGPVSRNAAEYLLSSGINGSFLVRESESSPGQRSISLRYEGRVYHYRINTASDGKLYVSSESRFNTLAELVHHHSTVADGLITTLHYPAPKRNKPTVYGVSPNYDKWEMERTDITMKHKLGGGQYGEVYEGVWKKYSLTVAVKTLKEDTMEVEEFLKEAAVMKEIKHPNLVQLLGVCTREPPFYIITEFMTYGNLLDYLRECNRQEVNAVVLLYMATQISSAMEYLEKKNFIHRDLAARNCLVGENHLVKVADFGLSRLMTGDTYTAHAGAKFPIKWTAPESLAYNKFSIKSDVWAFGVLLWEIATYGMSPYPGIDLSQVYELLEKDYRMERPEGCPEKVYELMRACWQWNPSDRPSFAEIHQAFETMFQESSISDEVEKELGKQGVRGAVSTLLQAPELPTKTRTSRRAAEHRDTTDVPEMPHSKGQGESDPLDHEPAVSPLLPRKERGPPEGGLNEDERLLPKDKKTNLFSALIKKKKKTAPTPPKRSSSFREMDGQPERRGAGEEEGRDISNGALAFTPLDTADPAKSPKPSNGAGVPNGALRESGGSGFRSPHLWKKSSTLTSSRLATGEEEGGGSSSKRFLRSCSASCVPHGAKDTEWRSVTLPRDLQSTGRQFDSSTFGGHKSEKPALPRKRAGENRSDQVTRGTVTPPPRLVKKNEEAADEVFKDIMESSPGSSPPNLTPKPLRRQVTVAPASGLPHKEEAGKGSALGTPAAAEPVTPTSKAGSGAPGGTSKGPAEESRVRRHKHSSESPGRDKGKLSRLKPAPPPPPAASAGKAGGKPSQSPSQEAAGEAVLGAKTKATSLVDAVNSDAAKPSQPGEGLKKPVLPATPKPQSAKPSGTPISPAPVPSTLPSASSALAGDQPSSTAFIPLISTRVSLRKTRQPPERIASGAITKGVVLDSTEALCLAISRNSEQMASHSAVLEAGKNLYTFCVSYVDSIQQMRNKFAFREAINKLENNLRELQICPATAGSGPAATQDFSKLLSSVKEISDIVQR

Compound	inhibition
O=C(Cc1ccc(NC(=O)C2CCN(C(=O)C3CCCCC3)CC2)cc1)Nc1ccc(C(=O)N2CCOCC2)cc1	0% (inactive)
COc1ccc(C(=O)N2CCC(C(=O)Nc3ccc(CC(=O)Nc4ccc(C(=O)N(C)C5CC5)cc4)cc3)CC2)cc1	0% (inactive)
O=C(Cc1ccc(NC(=O)C2CCN(C(=O)C3CCCC3)CC2)cc1)Nc1ccc(C(=O)N2CCOCC2)cc1	0% (inactive)
Cn1c(=O)c2c(nc(-n3ccnc3)n2Cc2ccc(Cl)cc2Cl)n(C)c1=O	0% (inactive)
COc1ccc2oc(C(=O)NCC(c3ccco3)N(C)C)c(C)c2c1 (configuration not stated)	0% (inactive)
CCOC(=O)N1CCN(C(=O)Nc2ccc(NC(=O)N3CCN(C(=O)OCC)CC3)cc2)CC1	0% (inactive)
CC(=O)Nc1ccc(NC(=O)C2CCN(C(=O)c3cccs3)CC2)cc1	0% (inactive)
N#Cc1ccccc1Sc1ccccc1C(=O)NCC(c1ccco1)N1CCCC1 (configuration not stated)	0% (inactive)
COc1cccc(CSc2nnc(CSc3nc4nc(C)cc(C)n4n3)s2)c1	0% (inactive)
CSc1ccccc1OCc1cc(C(=O)N2CCNC(=O)C2)no1	0% (inactive)
CN(C(=O)c1ccc(NC(=O)Cc2ccc(NC(=O)C3CCN(C(=O)c4ccccc4)CC3)cc2)cc1)C1CC1	0% (inactive)
CN(C(=O)c1ccc(NC(=O)Cc2ccc(NC(=O)C3CCN(C(=O)c4ccc(F)cc4)CC3)cc2)cc1)C1CC1	0% (inactive)
O=C(Cc1ccc(NC(=O)C2CCN(C(=O)c3ccccc3)CC2)cc1)Nc1ccc(C(=O)N2CCOCC2)cc1	0% (inactive)
CN(Cc1c(F)cccc1Cl)C(=O)CNC(=O)c1ccc2c(c1)OCO2	0% (inactive)
CN(C(=O)c1ccc(NC(=O)Cc2ccc(NC(=O)C3CCN(C(=O)c4cccc(F)c4)CC3)cc2)cc1)C1CC1	0% (inactive)
CN(CCc1ccccc1)C(=O)c1ccc(NC(=O)Cc2ccc(NC(=O)C3CCN(C(=O)c4ccccc4)CC3)cc2)cc1	0% (inactive)
Cc1c(C(=O)NCC(c2ccco2)N(C)C)oc2c(Cl)cccc12 (configuration not stated)	0% (inactive)
O=c1cc(OCc2ccccc2)cc[nH]1	0% (inactive)
CN(CCc1ccccc1)C(=O)c1ccc(NC(=O)Cc2ccc(NC(=O)C3CCN(C(=O)C4CCCC4)CC3)cc2)cc1	0% (inactive)
CCOC(=O)N1CCC(NC(=O)CCc2nc(C3=CCN(C)CC3)no2)CC1	0% (inactive)
O=C(c1cc(COc2cccc3cccnc23)on1)N1CCC[C@H]1CO	0% (inactive)
COc1ccc(CCNc2cc(=O)[nH]c(N)n2)cc1	0% (inactive)
